Test results as given in US20230167088A1, “1-PYRAZINYLPYRAZOLYL-3-OXYALKYL ACIDS AND THEIR DERIVATIVES, AND THEIR USE FOR CONTROL OF UNDESIRED PLANT GROWTH” (BAYER AKTIENGESELLSCHAFT, priority 2020, published 2023).

Key:
AMARE [1] = assay: Herbicidal pre-emergence action 2a (greenhouse pots, visual scoring); format: in vivo, Amaranthus retroflexus; details: dosage 320 g/ha, visual scoring after about 3 weeks vs untreated controls
Procedure, shortened: (§1)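 Visual scoring after roughly 3 weeks, as percent effect relative to untreated pots (0% = like control, 100% = dead). Seeds were covered with soil, then the surface received aqueous WP/EC suspension or emulsion (0.5% additive, 600 l/ha) at 320 and/or 80 g/ha.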

PHBPU [2] = assay: as above; format: in vivo, Pharbitis purpurea; details: dosage 320 g/ha, visual scoring after about 3 weeks vs untreated controls
Text: (§2) [table] a) Seeds of monocotyledonous and dicotyledonous weed plants and crop plants are placed in plastic or organic plant pots and covered with soil. The compounds of the invention, formulated in the form of wettable powders (WP) or as emulsion concentrates (EC), are then applied onto the surface of the covering soil as aqueous suspension or emulsion with addition of 0.5% additive at a water application rate of 600 1/ha (converted). After the treatment, the pots are placed in a greenhouse and kept under good growth conditions for the trial plants. After about 3 weeks, the effect of the preparations is scored visually in comparison with untreated controls as percentages. For example, 100% activity=the plants have died, 0% activity=like control plants. Tables B1 to B15 below show the effects of selected compounds of the general formula (I) according to Tables 1 and 2 on various harmful plants and an application rate corresponding to 320 g/ha and/or 80 g/ha, which were obtained by the experimental procedure mentioned above.

LOLRI [3] = assay: as above; format: in vivo, Lolium rigidum; details: dosage 320 g/ha, visual scoring after about 3 weeks vs untreated controls
Procedure, shortened: as §1

AVEFA [4] = assay: Herbicidal post-emergence action 1a (greenhouse pots, visual rating); format: in vivo, Avena fatua; details: rated visually about 3 weeks after treatment, 100% = plants have died, 0% = like control plants
Procedure, shortened: (§3)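 Weeds and crops sown in sandy loam in greenhouse pots were sprayed post-emergence at the one-leaf stage (2–3 weeks after sowing) with WP or EC formulations plus 0.5% additive at 600 l/ha water, 320 and/or 80 g/ha. About 3 weeks later damage was rated visually against untreated controls (0% = no effect, 100% = dead).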

PHBPU [5] = assay: as above; format: in vivo, Pharbitis purpurea; details: visual rating about 3 weeks after treatment
Procedure, shortened: as §3

ABUTH = assay: as above; format: in vivo, Abutilon theophrasti; details: visual rating about 3 weeks after treatment
Procedure, shortened: as §3

LOLRI [6] = assay: as above; format: in vivo, Lolium rigidum; details: rated visually about 3 weeks after treatment, 100% = plants have died, 0% = like control plants
Procedure, shortened: as §3

MATIN = assay: Herbicidal pre-emergence action 2a (greenhouse pots, visual scoring); format: in vivo, Matricaria inodora; details: dosage 320 g/ha, visual scoring after about 3 weeks vs untreated controls
Procedure, shortened: as §1

ALOMY [7] = assay: as above; format: in vivo, Alopecurus myosuroides; details: dosage 320 g/ha, visual scoring after about 3 weeks
Procedure, shortened: as §1

ECHCG [8] = assay: as above; format: in vivo, Echinochloa crus-galli; details: dosage 320 g/ha, visual scoring after about 3 weeks
Text: as §2

ECHCG [9] = assay: Herbicidal post-emergence action 1a (greenhouse pots, visual rating); format: in vivo, Echinochloa crus-galli; details: Dosage 320 g/ha; rated visually about 3 weeks after treatment; 100% = plants have died, 0% = like control plants
Procedure, shortened: as §3

AMARE [10] = assay: as above; format: in vivo, Amaranthus retroflexus; details: visual rating about 3 weeks after treatment
Procedure, shortened: as §3

AVEFA [11] = assay: Herbicidal pre-emergence action 2a (greenhouse pots, visual scoring); format: in vivo, Avena fatua; details: dosage 320 g/ha, visual scoring after about 3 weeks
Procedure, shortened: as §1

SETVI [12] = assay: as above; format: in vivo, Setaria viridis; details: dosage 320 g/ha, visual scoring after about 3 weeks vs untreated controls
Procedure, shortened: as §1

VERPE [13] = assay: as above; format: in vivo, Veronica persica; details: dosage 320 g/ha, visual scoring after about 3 weeks vs untreated controls
Procedure, shortened: as §1

VERPE [14] = assay: Herbicidal post-emergence action 1a (greenhouse pots, visual rating); format: in vivo, Veronica persica; details: visual rating about 3 weeks after treatment
Procedure, shortened: as §3

ALOMY [15] = assay: as above; format: in vivo, Alopecurus myosuroides; details: rated visually about 3 weeks after treatment, 100% = plants have died, 0% = like control plants
Procedure, shortened: as §3

SETVI [16] = assay: as above; format: in vivo, Setaria viridis; details: rated visually about 3 weeks after treatment, 100% = plants have died, 0% = like control plants
Procedure, shortened: as §3

POLCO [17] = assay: Herbicidal pre-emergence action 2a (greenhouse pots, visual scoring); format: in vivo, Polygonum convolvulus; details: dosage 320 g/ha, visual scoring after about 3 weeks vs untreated controls
Procedure, shortened: as §1

POLCO [18] = assay: Herbicidal post-emergence action 1a (greenhouse pots, visual rating); format: in vivo, Polygonum convolvulus; details: dosage 320 g/ha, visual rating about 3 weeks after treatment
Procedure, shortened: as §3

harmful plants [19] = assay: Herbicidal pre-emergence action 2a, summary across species; format: in vivo; details: Tables B1 to B15 (320 g/ha and/or 80 g/ha)
Text: as §2, with “a)” for “[table] a)”, “plants.” for “plants. Tables B1 to B15 below show the effects of selected compounds of the general formula (I) according to Tables 1 and 2 on various harmful plants and an application rate corresponding to 320 g/ha and/or 80 g/ha, which were obtained by the experimental procedure mentioned above.”
Tables B1 to B15 below show the effects of selected compounds of the general formula (I) according to Tables 1 and 2 on various harmful plants and an application rate corresponding to 320 g/ha and/or 80 g/ha, which were obtained by the experimental procedure mentioned above.
For example, compound nos. I-07, I-08, I-11, I-12, I-13, I-16, I-17, I-20, I-36, I-37, I-39, I-45, I-46, I-48, I-52 and I-53 in the pre-emergence method have very good action (80% to 100% herbicidal activity) against harmful plants such as Alopecurus myosuroides, Amaranthus retroflexus, Digitaria sanguinalis, Lolium rigidum, Polygonum convolvulus, Setaria viridis, Veronica persica and Viola tricolor at an application rate of 0.32 kg of active substance per hectare.

VIOTR [20] = assay: Herbicidal pre-emergence action 2a (greenhouse pots, visual scoring); format: in vivo, Viola tricolor; details: dosage 320 g/ha, visual scoring after about 3 weeks vs untreated controls
Procedure, shortened: as §1

VIOTR [21] = assay: Herbicidal post-emergence action 1a (greenhouse pots, visual rating); format: in vivo, Viola tricolor; details: visual rating about 3 weeks after treatment
Procedure, shortened: as §3

DIGSA [22] = assay: as above; format: in vivo, Digitaria sanguinalis; details: rated visually about 3 weeks after treatment, 100% = plants have died, 0% = like control plants
Description: (§4) [table] a) Seeds of monocotyledonous and dicotyledonous weeds and crop plants are placed in sandy loam in plastic or organic plant pots, covered with soil and cultivated in a greenhouse under controlled growth conditions. 2 to 3 weeks after sowing, the test plants are treated at the one-leaf stage. The compounds of the invention, formulated in the form of wettable powders (WP) or as emulsion concentrates (EC), are then sprayed onto the green parts of the plants as aqueous suspension or emulsion with addition of 0.5% additive at a water application rate of 600 1/ha (converted). After the test plants have been kept in the greenhouse under optimum growth conditions for about 3 weeks, the activity of the preparations is rated visually in comparison to untreated controls. For example, 100% activity=the plants have died, 0% activity=like control plants. Tables A1 to A15 below show the effects of selected compounds of the general formula (I) according to Tables 1 and 2 on various harmful plants and an application rate corresponding to 320 g/ha and/or 80 g/ha, which were obtained by the experimental procedure mentioned above.

DIGSA [23] = assay: Herbicidal pre-emergence action 2a (greenhouse pots, visual scoring); format: in vivo, Digitaria sanguinalis; details: dosage 320 g/ha, visual scoring after about 3 weeks
Text: as §2

harmful plants [24] = assay: Herbicidal post-emergence action 1a, summary across species; format: in vivo; details: Tables A1 to A15 (320 g/ha and/or 80 g/ha)
Description: as §4, with “a)” for “[table] a)”, “plants.” for “plants. Tables A1 to A15 below show the effects of selected compounds of the general formula (I) according to Tables 1 and 2 on various harmful plants and an application rate corresponding to 320 g/ha and/or 80 g/ha, which were obtained by the experimental procedure mentioned above.”
Tables A1 to A15 below show the effects of selected compounds of the general formula (I) according to Tables 1 and 2 on various harmful plants and an application rate corresponding to 320 g/ha and/or 80 g/ha, which were obtained by the experimental procedure mentioned above.
For example, compound nos. I-05, I-07, I-08, I-10, I-12, I-16, I-17, I-22, I-36, I-37, I-39 and I-40 in the post-emergence method have very good action (80% to 100% herbicidal activity) against harmful plants such as Alopecurus myosuroides, Amaranthus retroflexus, Avena fatua, Lolium rigidum, Polygonum convolvulus, Setaria viridis, Veronica persica and Viola tricolor at an application rate of 0.32 kg of active substance per hectare.

SMILES | Pre-emergence action against AMARE in % (AMARE [1]) | Pre-emergence action against LOLRI in % (LOLRI [3]) | Post-emergence action against AVEFA in % (AVEFA [4]; Dosage 80 g/ha) | Post-emergence action against AVEFA in % (AVEFA [4]; Dosage 320 g/ha) | Post-emergence action against ABUTH in % (ABUTH; dosage 80 g/ha) | Post-emergence action against ABUTH in % (ABUTH; dosage 320 g/ha) | Post-emergence action against LOLRI in % (LOLRI [6]; Dosage 320 g/ha) | Pre-emergence action against ALOMY in % (ALOMY [7]) | Pre-emergence action against ECHCG in % (ECHCG [8]) | Post-emergence action against ECHCG in % (ECHCG [9]) | Post-emergence action against AMARE in % (AMARE [10]; dosage 80 g/ha) | Post-emergence action against AMARE in % (AMARE [10]; dosage 320 g/ha) | Pre-emergence action against AVEFA in % (AVEFA [11]) | Pre-emergence action against SETVI in % (SETVI [12]) | Pre-emergence action against VERPE in % (VERPE [13]) | Post-emergence action against VERPE in % (VERPE [14]; dosage 320 g/ha) | Post-emergence action against ALOMY in % (ALOMY [15]; Dosage 320 g/ha) | Post-emergence action against SETVI in % (SETVI [16]; Dosage 320 g/ha) | Pre-emergence action against POLCO in % (POLCO [17]) | other results
O=C(O)COc1nn(-c2cnccn2)c(-c2cncc(F)c2)c1Br [Example I-93] | 100% | 100% | 100% | 100% | 80% | 80% | 90% | 90% | 100% | 90% | 90% | 90% | 100% | 100% | 100% | 80% | 100% | 90% | 100% | Pre-emergence action against PHBPU in % (PHBPU [2]): 100%; Post-emergence action against PHBPU in % (PHBPU [5]; dosage 80 g/ha): 90%; Post-emergence action against PHBPU in % (PHBPU [5]; dosage 320 g/ha): 90%; Pre-emergence action against MATIN in % (MATIN): 100%; Post-emergence action against VERPE in % (VERPE [14]; dosage 80 g/ha): 80%; Post-emergence action against SETVI in % (SETVI [16]; Dosage 80 g/ha): 90%
COC(=O)[C@@H](C)Oc1nn(-c2cnccn2)c(-c2ccc(F)nc2)c1Br [Example I-17] | 100% | 100% | 90% | 100% | 80% | 80% | 90% | 100% | 100% | 90% | 80% | 80% | 100% | 100% | 100% | 90% | 100% | 80% | 90% | Post-emergence action against POLCO in % (POLCO [18]): 90%; herbicidal efficacy against harmful plants in the case of pre-emergence treatment (in words) (harmful plants [19]): good herbicidal efficacy; Post-emergence action against LOLRI in % (LOLRI [6]; Dosage 80 g/ha): 90%; Pre-emergence action against VIOTR in % (VIOTR [20]): 100%; Post-emergence action against VIOTR in % (VIOTR [21]; dosage 80 g/ha): 90%; Post-emergence action against VIOTR in % (VIOTR [21]; dosage 320 g/ha): 90%; Post-emergence action against DIGSA in % (DIGSA [22]; Dosage 80 g/ha): 80%; Post-emergence action against DIGSA in % (DIGSA [22]; Dosage 320 g/ha): 90%; Pre-emergence action against DIGSA in % (DIGSA [23]): 100%; Post-emergence action against ALOMY in % (ALOMY [15]; Dosage 80 g/ha): 100%; herbicidal efficacy against harmful plants in the case of post-emergence treatment (in words) (harmful plants [24]): good herbicidal efficacy
